According to PubChem BioAssay AID330 (DTP/NCI, 2004):
“And” between values parts separate entries of the source, which are not always exact repeats. Equal entries are not always repeated. Inconclusive results and toxic doses are left out.

System: P388 leukemia ip, CD2F1 mice, survival T/C
Assay: NCI In Vivo Anticancer Drug Screen. Data for tumor model P388 Leukemia (intraperitoneal) in CD2F1 (CDF1) mice
Details: endpoint: median survival time, higher = longer survival
How it was run: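 Mice carrying the transplanted tumor received test compound or vehicle. Survival was recorded in each group, and the value is the treated-group measurement divided by that of the vehicle-treated control group.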

[1] = dose: 12.5 mg/kg/injection, schedule: Q01DX009 (ip), vehicle: saline with Tween-80
[2] = dose: 25.0 mg/kg/injection, schedule: Q01DX009 (ip), vehicle: saline with Tween-80
[3] = dose: 50.0 mg/kg/injection, schedule: Q01DX005 (ip), vehicle: saline with Tween-80
[4] = dose: 100.0 mg/kg/injection, schedule: Q01DX005 (ip), vehicle: saline with Tween-80
[5] = dose: 200.0 mg/kg/injection, schedule: Q01DX005 (ip), vehicle: saline with Tween-80
[6] = dose: 50.0 mg/kg/injection, schedule: Q01DX009 (ip), vehicle: saline with Tween-80
[7] = dose: 100.0 mg/kg/injection, schedule: Q01DX009 (ip), vehicle: saline with Tween-80
[8] = dose: 50.0 mg/kg/injection, schedule: Q01DX005 (ip), vehicle: Klucel (hydroxypropylcellulose) (HPC)
[9] = dose: 100.0 mg/kg/injection, schedule: Q01DX005 (ip), vehicle: Klucel (hydroxypropylcellulose) (HPC)
[10] = dose: 200.0 mg/kg/injection, schedule: Q01DX005 (ip), vehicle: Klucel (hydroxypropylcellulose) (HPC)
[11] = dose: 60.0 mg/kg/injection, schedule: Q01DX005 (ip), vehicle: saline
[12] = dose: 120.0 mg/kg/injection, schedule: Q01DX005 (ip), vehicle: saline
[13] = dose: 240.0 mg/kg/injection, schedule: Q01DX005 (ip), vehicle: saline
[14] = dose: 25.0 mg/kg/injection, schedule: Q01DX009 (ip), vehicle: saline
[15] = dose: 50.0 mg/kg/injection, schedule: Q01DX009 (ip), vehicle: saline
[16] = dose: 100.0 mg/kg/injection, schedule: Q04DX003 (ip), vehicle: saline with Tween-80
[17] = dose: 200.0 mg/kg/injection, schedule: Q04DX003 (ip), vehicle: saline with Tween-80
[18] = dose: 100.0 mg/kg/injection, schedule: Q01DX009 (ip), vehicle: saline
[19] = dose: 60.0 mg/kg/injection, schedule: Q01DX005 (ip), vehicle: Klucel (hydroxypropylcellulose) (HPC)
[20] = dose: 240.0 mg/kg/injection, schedule: Q01DX005 (ip), vehicle: Klucel (hydroxypropylcellulose) (HPC)
[21] = dose: 120.0 mg/kg/injection, schedule: Q01DX005 (ip), vehicle: Klucel (hydroxypropylcellulose) (HPC)
[22] = dose: 60.0 mg/kg/injection, schedule: Q01DX005 (ip), vehicle: saline with Tween-80

NN1C(=O)c2cccc3cccc(c23)C1=O
T/C (dose: 3.13 mg/kg/injection, schedule: Q01DX009 (ip), vehicle: saline with Tween-80): 105 % of control | T/C (dose: 6.25 mg/kg/injection, schedule: Q01DX009 (ip), vehicle: saline with Tween-80): 100 % of control | T/C [1]: 100 % of control | T/C [2]: 105 % of control

COc1ccc(C2/C(=N/O)CCCC2C)cc1 (centres undefined)
T/C [3]: 94 % of control | T/C [4]: 97 % of control | T/C [5]: 87 % of control

C=CC(=O)P(=O)(OCC)OCC
T/C (dose: 100.0 mg/kg/injection, schedule: Q04DX002 (ip), vehicle: saline): 107 % of control | T/C (dose: 200.0 mg/kg/injection, schedule: Q04DX002 (ip), vehicle: saline): 103 % of control | T/C (dose: 400.0 mg/kg/injection, schedule: Q04DX002 (ip), vehicle: saline): 98 % of control

N#CC1CC=CCN1CCc1ccccc1 (centres undefined)
T/C (dose: 12.5 mg/kg/injection, schedule: Q01DX005 (ip), vehicle: other): 101 % of control | T/C (dose: 25.0 mg/kg/injection, schedule: Q01DX005 (ip), vehicle: other): 101 % of control | T/C (dose: 50.0 mg/kg/injection, schedule: Q01DX005 (ip), vehicle: other): 111 % of control | T/C (dose: 50.0 mg/kg/injection, schedule: Q01DX005 (ip), vehicle: saline + Tween-80 + alcohol): 116 % of control

CCOC(=O)c1ccc(NN=NC)cc1
T/C [1]: 108 % of control and 113 % of control | T/C [6]: 154 % of control and 173 % of control | T/C [7]: 108 % of control and 91 % of control

Cc1ccc2c(c1)Nc1ccc(C)cc1C2(C)C
T/C [8]: 104 % of control | T/C [9]: 100 % of control | T/C [10]: 97 % of control

NC(=Nc1ccc(Cl)cc1)N/N=C/c1ccc(Cl)c(Cl)c1
T/C (dose: 25.0 mg/kg/injection, schedule: Q04DX002 (ip), vehicle: saline with Tween-80): 103 % of control | T/C (dose: 40.0 mg/kg/injection, schedule: Q04DX002 (ip), vehicle: saline with Tween-80): 100 % of control | T/C (dose: 100.0 mg/kg/injection, schedule: Q04DX002 (ip), vehicle: saline with Tween-80): 106 % of control | T/C (dose: 200.0 mg/kg/injection, schedule: Q04DX002 (ip), vehicle: saline with Tween-80): 107 % of control | T/C (dose: 400.0 mg/kg/injection, schedule: Q04DX002 (ip), vehicle: saline with Tween-80): 113 % of control

COC(=O)CC1CC(CCO)=C(C)C1=O (centres undefined)
T/C [11]: 101 % of control | T/C [12]: 99 % of control | T/C [13]: 100 % of control

c1ccc(C2SC3=NCCCN3Cc3ccccc32)cc1 (centres undefined)
T/C (dose: 12.5 mg/kg/injection, schedule: Q01DX009 (ip), vehicle: saline): 104 % of control | T/C [14]: 109 % of control | T/C [15]: 104 % of control and 97 % of control

C/C(=C\N1CCN(c2ccc(Cl)cc2)C(C)C1)C(=O)c1ccccc1 (centres undefined)
T/C [16]: 94 % of control | T/C [17]: 88 % of control

O=c1n[n+]([O-])ccn1C1OC(CO)C(O)C1O (centres undefined)
T/C [15]: 119 % of control and 123 % of control | T/C [18]: 106 % of control | T/C (dose: 300.0 mg/kg/injection, schedule: Q01DX009 (ip), vehicle: saline): 169 % of control and 170 % of control | T/C (dose: 450.0 mg/kg/injection, schedule: Q01DX009 (ip), vehicle: saline): 96 % of control

N#CC(=Nc1ccc(F)cc1F)C1=C(O)c2ccccc2C1=O
T/C (dose: 12.5 mg/kg/injection, schedule: Q01DX005 (ip), vehicle: saline with Tween-80): 97 % of control | T/C (dose: 25.0 mg/kg/injection, schedule: Q01DX005 (ip), vehicle: saline with Tween-80): 105 % of control | T/C [3]: 100 % of control

COC(=O)C1(CC(=O)/C=C/c2ccccc2)NC(=S)NC(=O)C1C#N (centres undefined)
T/C (dose: 30.0 mg/kg/injection, schedule: Q01DX005 (ip), vehicle: Klucel (hydroxypropylcellulose) (HPC)): 102 % of control | T/C [19]: 91 % of control and 92 % of control | T/C [20]: 92 % of control

O=c1c2ccccc2sc2c(CO)ccc(NCCCN3CCN(CCCNc4ccc(CO)c5sc6ccccc6c(=O)c45)CC3)c12
T/C (dose: 0.67 mg/kg/injection, schedule: Q01DX005 (ip), vehicle: saline with Tween-80): 93 % of control | T/C (dose: 1.25 mg/kg/injection, schedule: Q01DX005 (ip), vehicle: saline with Tween-80): 104 % of control | T/C (dose: 2.5 mg/kg/injection, schedule: Q01DX005 (ip), vehicle: saline with Tween-80): 107 % of control | T/C (dose: 5.0 mg/kg/injection, schedule: Q01DX005 (ip), vehicle: saline with Tween-80): 95 % of control | T/C (dose: 10.0 mg/kg/injection, schedule: Q01DX005 (ip), vehicle: saline with Tween-80): 104 % of control | T/C (dose: 20.0 mg/kg/injection, schedule: Q01DX005 (ip), vehicle: saline with Tween-80): 94 % of control | T/C (dose: 40.0 mg/kg/injection, schedule: Q01DX005 (ip), vehicle: saline with Tween-80): 86 % of control and 95 % of control | T/C (dose: 80.0 mg/kg/injection, schedule: Q01DX005 (ip), vehicle: saline with Tween-80): 90 % of control

CCC1(O)C(=O)Nc2ccc(OC)cc2C1=O (centres undefined)
T/C [19]: 97 % of control | T/C [21]: 93 % of control | T/C [20]: 93 % of control

COC(=O)C1=NC(=O)C(C#N)=C(C(=O)OC)C1(C(=O)c1ccc(OC)cc1)c1ccc(OC)cc1 (centres undefined)
T/C [19]: 95 % of control | T/C [21]: 91 % of control

COC(c1cccc(C(OC)(C(F)(F)F)C(F)(F)F)c1)(C(F)(F)F)C(F)(F)F
T/C (dose: 25.0 mg/kg/injection, schedule: Q01DX005 (ip), vehicle: Klucel (hydroxypropylcellulose) (HPC)): 101 % of control | T/C [8]: 96 % of control | T/C [9]: 103 % of control | T/C [10]: 90 % of control

CC(=O)[C@]1(O)Cc2c(O)c3c(c(O)c2[C@@H](OC2CC(N)C(O)C(C)O2)C1)C(=O)c1c(OCC(C)C)cccc1C3=O (some centres undefined)
T/C (dose: 3.13 mg/kg/injection, schedule: Q04DX003 (ip), vehicle: water): 107 % of control and 110 % of control | T/C (dose: 6.25 mg/kg/injection, schedule: Q04DX003 (ip), vehicle: water): 105 % of control and 119 % of control | T/C (dose: 12.5 mg/kg/injection, schedule: Q04DX003 (ip), vehicle: water): 101 % of control | T/C (dose: 25.0 mg/kg/injection, schedule: Q04DX003 (ip), vehicle: water): 121 % of control | T/C (dose: 50.0 mg/kg/injection, schedule: Q04DX003 (ip), vehicle: water): 101 % of control and 89 % of control

Nc1ncc2c(=O)c3c(ccc4ccccc43)oc2n1
T/C [1]: 96 % of control | T/C [2]: 98 % of control | T/C [6]: 90 % of control | T/C [7]: 87 % of control

O=C1/C(=C/c2ccc(O)cc2)CCC/C1=C\c1ccc(O)cc1
T/C [22]: 97 % of control | T/C (dose: 120.0 mg/kg/injection, schedule: Q01DX005 (ip), vehicle: saline with Tween-80): 93 % of control | T/C (dose: 240.0 mg/kg/injection, schedule: Q01DX005 (ip), vehicle: saline with Tween-80): 92 % of control

Cc1ccc2c(c1)nc(C)c(=O)n2CC1CCCN2CCCC[C@H]12 (some centres undefined)
T/C (dose: 15.0 mg/kg/injection, schedule: Q01DX005 (ip), vehicle: saline with Tween-80): 97 % of control | T/C (dose: 30.0 mg/kg/injection, schedule: Q01DX005 (ip), vehicle: saline with Tween-80): 97 % of control | T/C [22]: 97 % of control

O=C(/C=C/c1ccccc1)C/C(=N/O)C(=O)NO
T/C [11]: 104 % of control | T/C [12]: 101 % of control | T/C [13]: 103 % of control

CN(C)C1(c2ccccc2)N=NN=S1C (centres undefined)
T/C [16]: 105 % of control | T/C [17]: 105 % of control

C1COCCCOCCCOCCCC2(CCCOCCCOC1)OCCO2
T/C [3]: 102 % of control | T/C [4]: 102 % of control | T/C [5]: 101 % of control

COC(=O)/C=C/c1ccccc1-c1ccccc1/C=C/C(=O)OC
T/C (dose: 100.0 mg/kg/injection, schedule: Q04DX003 (ip), vehicle: saline): 105 % of control | T/C (dose: 200.0 mg/kg/injection, schedule: Q04DX003 (ip), vehicle: saline): 102 % of control | T/C (dose: 400.0 mg/kg/injection, schedule: Q04DX003 (ip), vehicle: saline): 100 % of control

CCOC(=O)CCN(C)C1CCCCC1C(=O)OCC (centres undefined)
T/C [14]: 100 % of control | T/C [15]: 101 % of control | T/C [18]: 107 % of control
